{"source": "paper PMC10582335", "about": "(Frontiers in Pharmacology, 2023)", "key": {"[1]": {"test_system": "Abcb1a mRNA (P-gp)", "assay": "qRT-PCR of mRNA expression in rat tissues after multiple-dose almonertinib", "assay_type": "in vivo", "conditions": "rats given almonertinib for nine consecutive days, n = 3", "protocol": "Sixty healthy rats were randomly divided into ten groups (n = 6). […] Blood samples were centrifuged at 3,500 g for 10 min, and then the supernatant was gathered and stored in a -80°C refrigerator. After, rat intestine, kidney and liver tissues were harvested for molecular analysis on the ninth or fifth day after treatment with the corresponding drugs for each group. The tissues were placed immediately at -80°C. qRT-PCR analysis was used to determine mRNA levels of Abcb1a, Abcg2 and Cyp3a1 in the liver and intestines, and Abcb1a and Abcg2 in the kidney of rats. Total RNA was isolated from frozen liver, intestine and kidney samples using TRNzol Universal according to the manufacturer's instructions. A Bio Tek Epoch (Bio Tek Instruments, Inc., Winooski, VT, United States) was employed to quantify the purity and concentration of the total RNA based on the ratio of the absorbance between 260 and 280 nm. RNA samples of 1 μg were transformed to complementary DNA (cDNA) using the […] Kit. The real-time PCR assays were accomplished using a two-step amplification method based on the recommendations in a SLAN-96S Real-Time PCR system (Shanghai Hongshi Medical Technology Co., Ltd. Shanghai, China). […] was used as an internal control, and the PCR cycling criteria were as follows: 95°C for 15 min, then 40 cycles of 95°C for 10, and 60°C for 32 s."}, "[2]": {"assay": "Pharmacokinetics of almonertinib in rats, alone and after multiple doses of rivaroxaban or apixaban", "assay_type": "in vivo, Sprague-Dawley (SD) rats", "conditions": "for AUC(0-inf) / AUC(0-t) / Cmax / Tmax / CL/F / MRT last / MRT inf / Vd/F / half-life: male, Sprague-Dawley, rat, plasma, po, 15 mg/kg, mean ± SD, n = 6; for CL/F: read-out: CLz/F (converted); for MRT last: read-out: MRT0-t; for MRT inf: read-out: MRT0-∞; for Vd/F: read-out: Vz/F; for half-life: read-out: t1/2z (converted)", "protocol": "Chromatographic separation was performed using an XSelect HSS T3 column (2.1 mm × 100 mm, 2.5 µm, Waters, Milford, MA, United States) at 40°C by gradient elution. The mobile phase consisted of water (A) and acetonitrile (0.1% formic acid, B). […] The flow rate was 0.35 mL min^−1, and the injection volume was 6 µL. The positive ion mode with multiple reaction detection was used. […] The mass spectrometer conditions, including delustering potential (DP) and collision energy (CE) of the compounds, are shown in Table 1. […] Protein precipitation was used to process the plasma samples. 5 μL of mixed IS working solution, 50 µL of the plasma samples, and 150 µL of acetonitrile were vortex-mixed for 1.0 min. […] The supernatant was transferred to a 96-well plate for sample analysis. […] (Beijing, China). […] The study was approved and supervised by the Animal Ethics Committee of Hebei General Hospital (Shijiazhuang, China) (No. 2023024). Adaptive feeding (sufficient food and water) was performed for 1 week before the experiment. […] All rats were fasted for 12 h before starting the experiments while still given water. Sixty healthy rats were randomly divided into ten groups (n = 6). […] Blood samples were centrifuged at 3,500 g for 10 min, and then the supernatant was gathered and stored in a −80°C refrigerator. After, rat intestine, kidney and liver tissues were harvested for molecular analysis on the ninth or fifth day after treatment with the corresponding drugs for each group. The tissues were placed immediately at −80°C. DAS 2.1.1 Software (Mathematical Pharmacology Professional Committee of China, Shanghai, China) was applied to calculate pharmacokinetic parameters using non-compartmental analysis. SPSS 25.0 statistical software (SPSS Inc., Chicago, IL, United States) was applied to statistically analyze the main pharmacokinetic parameters, including AUC, Cmax, Tmax, t1/2, CLz/F, Vz/F, and MRT."}, "[3]": {"conditions": "almonertinib 15 mg/kg after multiple doses of rivaroxaban (group 9) compared with group 3, rats"}, "[4]": {"conditions": "rats, oral almonertinib 15 mg/kg after apixaban 0.5 mg/kg for five days (group 10)"}, "[5]": {"conditions": "rats, oral almonertinib 15 mg/kg after rivaroxaban 2 mg/kg for five days (group 9)"}, "[6]": {"conditions": "rats, oral almonertinib 15 mg/kg alone (group 3, control solvent of rivaroxaban)"}, "[7]": {"conditions": "rats, oral almonertinib 15 mg/kg alone (group 4, control solvent of apixaban)"}}, "note": "Where two headings read alike, the source gives them in different places.", "data": [{"smiles": "C=CC(=O)Nc1cc(Nc2nccc(-c3cn(C4CC4)c4ccccc34)n2)c(OC)cc1N(C)CCN(C)C", "note": "[almonertinib, Almonertinib]", "values": [{"measurement": "inhibition of mRNA expression of Abcb1a", "setting": "[1]; intestine", "result": 51.3, "unit": "%"}, {"measurement": "inhibition of mRNA expression of Abcb1a", "setting": "[1]; kidney", "result": 42.9, "unit": "%"}, {"measurement": "all the pharmacokinetic parameters of almonertinib, comparison with almonertinib alone", "setting": "[2]; almonertinib 15 mg/kg after multiple doses of apixaban 0.5 mg/kg (group 10) compared with group 4, rats", "result": "no statistically significant difference"}, {"measurement": "increase of Cmax of almonertinib", "setting": "[2]; almonertinib 15 mg/kg after multiple doses of rivaroxaban (group 9) compared with almonertinib alone (group 3), rats", "result": 1.26, "unit": "fold"}, {"measurement": "decrease of CLz/F of almonertinib", "setting": "[2]; [3]", "result": 81.1, "unit": "%"}, {"measurement": "increase of AUC0-t of almonertinib", "setting": "[2]; [3]", "result": 1.17, "unit": "fold"}, {"measurement": "increase of AUC0-∞ of almonertinib", "setting": "[2]; [3]", "result": 1.17, "unit": "fold"}, {"measurement": "AUC(0-inf)", "setting": "[2]; [4]", "result": "293 ± 48.9", "unit": "ng·h/mL"}, {"measurement": "AUC(0-t)", "setting": "[2]; [4]", "result": "267 ± 51.9", "unit": "ng·h/mL"}, {"measurement": "Cmax", "setting": "[2]; [4]", "result": "42.1 ± 5.99", "unit": "ng/mL"}, {"measurement": "Tmax", "setting": "[2]; [4]", "result": "2.5 ± 1.18", "unit": "h"}, {"measurement": "CL/F", "setting": "[2]; [4]", "result": 877, "unit": "mL/min/kg"}, {"measurement": "MRT last", "setting": "[2]; [4]", "result": "6.49 ± 0.35", "unit": "h"}, {"measurement": "MRT inf", "setting": "[2]; [4]", "result": "9.31 ± 2.59", "unit": "h"}, {"measurement": "Vd/F", "setting": "[2]; [4]", "result": "522 ± 318", "unit": "L/kg"}, {"measurement": "half-life", "setting": "[2]; [4]", "result": "6.79 ± 4.15", "unit": "h"}, {"measurement": "AUC(0-inf)", "setting": "[2]; [5]", "result": "299 ± 150", "unit": "ng·h/mL"}, {"measurement": "AUC(0-t)", "setting": "[2]; [5]", "result": "299 ± 150", "unit": "ng·h/mL"}, {"measurement": "Cmax", "setting": "[2]; [5]", "result": "51.4 ± 24.9", "unit": "ng/mL"}, {"measurement": "Tmax", "setting": "[2]; [5]", "result": "3.17 ± 0.41", "unit": "h"}, {"measurement": "CL/F", "setting": "[2]; [5]", "result": 1040, "unit": "mL/min/kg"}, {"measurement": "MRT last", "setting": "[2]; [5]", "result": "5.15 ± 0.66", "unit": "h"}, {"measurement": "MRT inf", "setting": "[2]; [5]", "result": "5.15 ± 0.66", "unit": "h"}, {"measurement": "Vd/F", "setting": "[2]; [5]", "result": "244 ± 168", "unit": "L/kg"}, {"measurement": "half-life", "setting": "[2]; [5]", "result": "2.7 ± 0.78", "unit": "h"}, {"measurement": "AUC(0-inf)", "setting": "[2]; [6]", "result": "138 ± 31.3", "unit": "ng·h/mL"}, {"measurement": "AUC(0-t)", "setting": "[2]; [6]", "result": "138 ± 31.3", "unit": "ng·h/mL"}, {"measurement": "Cmax", "setting": "[2]; [6]", "result": "22.8 ± 4.76", "unit": "ng/mL"}, {"measurement": "Tmax", "setting": "[2]; [6]", "result": "2.17 ± 1.13", "unit": "h"}, {"measurement": "CL/F", "setting": "[2]; [6]", "result": 1880, "unit": "mL/min/kg"}, {"measurement": "MRT last", "setting": "[2]; [6]", "result": "5.03 ± 0.73", "unit": "h"}, {"measurement": "MRT inf", "setting": "[2]; [6]", "result": "5.03 ± 0.74", "unit": "h"}, {"measurement": "Vd/F", "setting": "[2]; [6]", "result": "331 ± 125", "unit": "L/kg"}, {"measurement": "half-life", "setting": "[2]; [6]", "result": "2.18 ± 1.05", "unit": "h"}, {"measurement": "AUC(0-inf)", "setting": "[2]; [7]", "result": "299 ± 46.8", "unit": "ng·h/mL"}, {"measurement": "AUC(0-t)", "setting": "[2]; [7]", "result": "281 ± 43.3", "unit": "ng·h/mL"}, {"measurement": "Cmax", "setting": "[2]; [7]", "result": "39.8 ± 8.12", "unit": "ng/mL"}, {"measurement": "Tmax", "setting": "[2]; [7]", "result": "1.83 ± 1.03", "unit": "h"}, {"measurement": "CL/F", "setting": "[2]; [7]", "result": 855, "unit": "mL/min/kg"}, {"measurement": "MRT last", "setting": "[2]; [7]", "result": "6.53 ± 0.97", "unit": "h"}, {"measurement": "MRT inf", "setting": "[2]; [7]", "result": "8.35 ± 3.38", "unit": "h"}, {"measurement": "Vd/F", "setting": "[2]; [7]", "result": "383 ± 316", "unit": "L/kg"}, {"measurement": "half-life", "setting": "[2]; [7]", "result": "5.4 ± 4.96", "unit": "h"}]}]}
